Experimental data taken from patent publication US9994578B2, “Benzodiazepine derivative and use thereof” (JIANGSU NHWALUOKANG PHARMCEUTICAL RESEARCH AND DEVELOPMENT …, priority 2014, dated 2018).
Converted amounts (≈) assume the structure as drawn. Marks after values point to notes of the source that are not given here.

Experiments:
[1] = Solubility in normal saline; type: physicochemical; conditions: saline or isotonic
Procedure: The structures of the compounds C1-C5 and their solubilities in normal saline are as follows:
Furthermore, other derivatives were also prepared. The structures and solubilities in normal saline are as follows: […]

Kunming mice = assay: Anesthetic efficacy on mice (disappearance of righting reflex); type: in vivo; conditions: for Number of anesthetized animals / Behavior of animals: 9 mg/kg caudal vein injection, 0.9 mg/ml; for Number of anesthetized animals: 6 per group, disappearance of righting reflex
Procedure: Kunming mice (SPF, Chongqing Medical University Animal Center) were randomly grouped with 6 animals in each group. The dosage as 9 mg/kg was administered via caudal vein injection for 3-5 seconds. The performances during animal experiments were recorded with the standard of disappearance of righting reflex.

[2] = Oil/water partition coefficient (n-octanol/water); type: physicochemical; conditions: 1 mg/ml aqueous solution, room temperature
Procedure: Remirnazolam and compound C2 were formulated into aqueous solution of 1 mg/ml respectively, 10 ml of prepared solution were measured and n-octanol with equal volume was added.

[3] = Rat plasma decomposition in vitro; type: in vitro ADME; conditions: 37° C.
Procedure: Remimazolam and compound C2 were formulated in normal saline of respectively. 0.1 ml of the solution was measured and added into plasma of rat (living Kunming species, SPF, Animal center of Chongqing Medical University). Mixing was performed sufficiently, and the mixture was placed in constant temperature water bath of 37° C. 2 ml of acetonitrile was added immediately after taking samples at different time-points. Shaking and centrifugation at 1000 rpm/min were conducted to obtain supernatant and HPLC measurement was performed.

[4] = Anesthetic ED50, LD50 and TI index of rats (sequential method); type: in vivo; conditions: rat, in vivo, intravenous; male SD rats, caudal vein injection in 10 seconds, death
Procedure: (§1) Anesthetic ED50 (median effective dose) value and LD50 (half lethal dose) value of rats are determined by sequential method. Healthy male SD rats (SPF, Qinglongshan animal breeding center of Nanjing), n-10˜20, were administrated via caudal vein injection and injection was completed in 10 seconds at a constant speed. The rough dosage that cause anesthesia (or death) of animal was found by preliminary test before experiment and used as middle dosage for the formal experiment. The spacing of each group was set as 0.8, and 2-3 dose-groups were set up and down, respectively. During the formal experiment, administration began from the group of middle dosage. When the animal was anaesthetized (or dead), administration was reduced by a dose unit; if the animal was not anaesthetized (or death), administration was increased by a dose unit until 3-4 reversal were found. The disappearance of righting reflex or death was used as judgment index, respectively. The ot425 software was used to calculate LD50 and ED50. Treatment index (TI index) was calculated by LD50 and ED50 value=LD50/ED50.

SD rats = assay: as above; type: in vivo; conditions: for ED50: Rattus norvegicus, male SD rats, caudal vein injection in 10 seconds, disappearance of righting reflex; for TI index: rats, LD50/ED50
Procedure: as §1

Kunming rats = assay: Anesthetic induction time and waking up time of rats via intravenous bolus; type: in vivo; conditions: for Number of anesthetic animals: 2*ED50 caudal vein injection in 10 seconds, 10 per group; for Induction time: 2*ED50 i.v. bolus, time to disappearance of righting reflex
Procedure: (§2) Kunming rats (SPF, Qinglongshan animal breeding center of Nanjing), half male and half female, were divided into groups with 10 animals in each group. The dosage of administration was 2*ED50 (ED50 value was detected in Example 12) and caudal vein injection was done at a constant speed in 10 seconds. The time for the disappearance of right reflex (latent period) and recovery time (duration period) of rats were recorded.

rats = assay: as above; type: in vivo; conditions: 2*ED50 i.v. bolus, recovery time
Procedure: as §2

[5] = tested on: New Zealand white rabbits; assay: Rabbits anesthetic ED50 (sequential method); type: in vivo; conditions: Oryctolagus cuniculus, ear vein injection in 30 seconds, disappearance of righting reflex
Procedure: Anesthetic ED50 values of rabbits are determined by sequential method. Healthy New Zealand white rabbits (SPF, Peizhou rabbit breeding center) were administrated via ear vein injection at a constant speed in 30 seconds. The rough dosage that cause anesthesia (or death) of animal were found by preliminary test before experiment and used as middle dosage for the formal experiment. The spacing of each group was set as 0.8 and 2-3 dose-groups were set up and down, respectively. The disappearance of righting reflex or death was used as judgment index of efficacy or toxicity, respectively. During the formal experiment, administration began from the group of middle dosage. When the animal was anesthetized (or dead), administration was reduced by a dose unit; if the animal was not anesthetized (or dead), administration was increased by a dose unit, until 3-4 reversal occurred. The disappearance of righting reflex or death was used as judgment index, respectively. The ot425 software was used to calculate ED50.

[6] = tested on: New Zealand white rabbits; assay: Anesthetic induction time and waking up time of rabbits via intravenous bolus; type: in vivo; conditions: for Number of anesthetic animals: 1.0 mg/kg (2*ED50) ear vein injection in 30 seconds, 8 per group; for Duration / Induction time: 1.0 mg/kg (2*ED50) i.v. bolus
Procedure: New Zealand white rabbits (SPF, Peizhou rabbit breeding center), half male and half female, were divided into groups with 8 animals in each group. The dosage of administration was 2*ED50 (ED50 value was detected in Example 14), and was administrated via ear vein injection at a constant speed in 30 seconds. The time (latent period) for the disappearance of right reflex and recovery time (duration period) of rabbits were recorded.

[7] = tested on: New Zealand white rabbits; assay: Long-term venous infusion experiment on rabbits; type: in vivo; conditions: inducing dose 1.5 mg/kg (3*ED50), maintaining dose 22.5 mg/kg/h
Procedure: New Zealand white rabbits (SPF, Peizhou rabbit breeding center), half male and half female, were divided into groups with 10 animals in each group. The dosage of each administration was 3*ED50 (ED50 value was detected in Example 14) as inducing dosage when intravenous injection was performed on rabbits. An appropriate dosage was infused as maintaining dosage for 30 min. […] The effects of long-term infusion of medicine of the two groups on rabbits (breathe, salivation, excrement) were observed and the time from ceasing administration to the recovery of righting reflex of rabbits were recorded.

Macaca fascicularis = assay: Anesthetic pharmacodynamic experiment on Macaca fascicularis; type: in vivo; conditions: for Number of anesthetic animal/number of animal: disappearance of eyelid response
Procedure: Compound C2 showing significant efficacy on other animal, was administrated to Macaca fascicularis for anesthetic pharmacodynamic experiment. The rough anesthetic dosage of compound C2 for Macaca fascicularis was investigated by preliminary test before experiment and different dosages were set for the formal experiment. Intravenous administration was performed in 60±10s. The disappearance of eyelid response of animal was used to judge whether anesthesia occurred on the animal. The behaviors of animals were observed during duration period and the anesthetic effects of compound C2 on Macaca fascicularis were evaluated.

[8] = tested on: GABAA receptor benzodiazepines site; assay: In vitro affinity with GABAA receptor benzodiazepines site (3H-flunitrazepam displacement, brain membrane); type: binding, SD rat
[9] = Hepatocyte metabolism experiment of CNS 7056 in vitro with formic acid; type: in vitro ADME; conditions: formic acid added in liver cell nutrient solution at 0.1% (v/v)
Text: Therefore, after a long-term administration of remimazolam during ICU sedation process by ONO PHARMACEUTICAL CO., LTD, the metabolite methanol is easily oxidized to formic acid. Formic acid easily accumulates in vivo and inhibits hCES1 such that remimazolam is metabolized slowly, which may cause high serum concentration in some patients.

ICU patients = conditions: of 49 ICU patients, sedation; cited from earlier work

## CCOC(=O)CC[C@@H]1N=C(c2ccccn2)c2cc(Br)ccc2-n2c(C)cnc21 [C2, remimazolam acid ethyl ester p-toluenesulfonate]
[1]
  solubility: 15 mg/mL (≈ 33.1 mM)
Kunming mice
  Number of anesthetized animals: 6/6
[2]
  logP at 24 h: 3.28
[3]; 10 s
  Rat Plasma decomposition in vitro (%): 61.4%
[3]; 30 s
  Rat Plasma decomposition in vitro (%): 99.0%
[3]; 1 min
  Rat Plasma decomposition in vitro (%): 100%
[4]
  LD50: 30.7 mg/kg
SD rats
  ED50: 3.2 mg/kg
  TI index: 9.6
Kunming rats
  Number of anesthetic animals: 10/10
  Induction time: 18.8 ± 3.0 s
rats
  Duration: 267.4 ± 105 s
[5]
  ED50: 0.512 mg/kg
[6]
  Number of anesthetic animals: 8/8
  Duration: 13.19 ± 3.52 min
  Induction time: 1.80 ± 0.78 min
[7]
  Waking up time after intravenous drip for 30 min: 45.20 ± 12.59 min
Macaca fascicularis; 3 mg/kg i.v.
  Duration: 28.67 ± 5.92 min
  Induction time: 2.00 ± 0.63 s
  Number of anesthetic animal/number of animal: 3/3
Macaca fascicularis; 4 mg/kg i.v.
  Duration: 31.67 ± 6.86 min
  Induction time: 1.74 ± 0.43 s
  Number of anesthetic animal/number of animal: 3/3
Macaca fascicularis; 5 mg/kg i.v.
  Duration: 36.21 ± 4.78 min
  Induction time: 1.48 ± 0.54 s
  Number of anesthetic animal/number of animal: 3/3

## CCOC(=O)CC[C@@H]1N=C(c2ccccn2)c2cc(Br)ccc2-n2c(C)cnc21.O=S(=O)(O)c1ccccc1 [C3, remimazolam acid ethyl ester benzenesulfonate]
[1]
  solubility: 15 mg/mL

## CCOC(=O)CC[C@@H]1N=C(c2ccccn2)c2cc(Br)ccc2-n2c(C)cnc21.CS(=O)(=O)O [C4, remimazolam acid ethyl ester methanesulfonate]
[1]
  solubility: 16 mg/mL

## CCOC(=O)CC[C@@H]1N=C(c2ccccn2)c2cc(Br)ccc2-n2c(C)cnc21.CCS(=O)(=O)O [C5, remimazolam acid ethyl ester ethanesulfonate]
[1]
  solubility: 16 mg/mL

## Cc1ccc(S(=O)(=O)O)cc1.Cc1cnc2n1-c1ccc(Br)cc1C(c1ccccn1)=N[C@H]2CCC(=O)OC(C)C [C6, remimazolam acid isopropyl ester p-toluenesulfonate]
[1]
  solubility: 8 mg/mL
Kunming mice
  Number of anesthetized animals: 6/6
Kunming mice; 9 mg/kg i.v.
  anesthetic effect on the mice: has anesthetic effect on the mice
  toxicity in mice: shows some toxicity

## CCCOC(=O)CC[C@@H]1N=C(c2ccccn2)c2cc(Br)ccc2-n2c(C)cnc21.Cc1ccc(S(=O)(=O)O)cc1 [C7, remimazolam acid n-propyl ester p-toluenesulfonate]
[1]
  solubility: 8 mg/mL
Kunming mice
  Number of anesthetized animals: 0/6

## Cc1ccc(S(=O)(=O)O)cc1.Cc1cnc2n1-c1ccc(Br)cc1C(c1ccccn1)=N[C@H]2CCC(=O)OCCC(C)C [C8, remimazolam acid isopentyl ester p-toluenesulfonate]
[1]
  solubility: 6 mg/mL
Kunming mice
  Behavior of animals: Non-effect
  Number of anesthetized animals: 0/6

## Cc1ccc(S(=O)(=O)O)cc1.Cc1cnc2n1-c1ccc(Br)cc1C(c1ccccn1)=N[C@H]2CCC(=O)OC1CCCCC1 [C9, remimazolam acid cyclohexyl ester p-toluenesulfonate]
[1]
  solubility: 5 mg/mL
Kunming mice
  Behavior of animals: Non-effect
  Number of anesthetized animals: 0/6

## COC(=O)CC[C@@H]1N=C(c2ccccn2)c2cc(Br)ccc2-n2c(C)cnc21 [remimazolam, reference compound]
Kunming mice
  Number of anesthetized animals: 6/6
[8]; 1.0 × 10^−5M test compound, 1 nM 3H-flunitrazepam
  Inhibitory rate %: 99.7* %
[8]; 1.0 × 10^−6M
  Inhibitory rate %: 85.5%
[8]; 1.0 × 10^−7M
  Inhibitory rate %: 47.0%
[8]; 1.0 × 10^−8M
  Inhibitory rate %: 15.4%
[8]; 1.0 × 10^−9M
  Inhibitory rate %: 6.8%
[8]; 1.0 × 10^−10M
  Inhibitory rate %: 23.0%
[8]; calculated by logit method
  IC50: 15.8 nM
[2]
  logP at 24 h: 2.62
[3]; 10 s
  Rat Plasma decomposition in vitro (%): 53.7%
[3]; 30 s
  Rat Plasma decomposition in vitro (%): 96.7%
[3]; 1 min
  Rat Plasma decomposition in vitro (%): 100%
[4]
  LD50: 61.4 mg/kg
SD rats
  ED50: 5 mg/kg
  TI index: 12.3
Kunming rats
  Number of anesthetic animals: 10/10
  Induction time: 52.1 ± 4.7 s
rats
  Duration: 242.2 ± 68 s
[5]
  ED50: 0.512 mg/kg
[6]
  Number of anesthetic animals: 8/8
  Duration: 10.25 ± 2.72 min
  Induction time: 4.30 ± 2.38 min
[7]
  Waking up time after intravenous drip for 30 min: 33.91 ± 10.28 min
Macaca fascicularis; 3 mg/kg i.v.
  Duration: 23.33 ± 6.71 min
  Induction time: 2.17 ± 0.41 s
  Number of anesthetic animal/number of animal: 3/3
[9]
  metabolism of CNS 7056 in hepatocytes: totally inhibited
ICU patients
  patients with higher serum concentration of remimazolam: Five
  patients with prolonged waking up time: five
